Where two headings read alike, the source gives them in different places.
How the values were obtained:
[1] = Pharmacokinetics in rats after i.v. dosing: plasma and tissue content; format: in vivo; conditions: 3.6 mg/kg i.v.; for concentration at 4 h: 3.6 mg/kg, liposomal
Experimental: The pharmacokinetics of the compound were evaluated in two rats after dosing at 3.6 mg/kg i.v using a liposomal formulation (1.8 mg/mL). […] Maximum concentrations of approximately 450 ng/ml were attained in plasma. […] Data on the accumulation of the compound in various tissues of the rats is contained in the table below.

in vivo = assay: in vivo; parameters: species or system mice; conditions: mouse, ip
Experimental: Solutions of compounds in 10% w/v hydroxypropyl-β-cyclodextrin in 0.9% w/v saline were prepared. A dose of 40 mg/kg or 120 mg/kg of each compound was administered to mice (5 mice/compound/dose) via intraperitoneal injections.

[2] = tested on: methicillin-resistant Staphylococcus aureus; assay: Topical treatment of infected partial thickness wounds in pigs; format: in vivo, methicillin-resistant Staphylococcus aureus; pigs; conditions: pig wounds, 200 mg of 2% w/w in PEG
Experimental: This Example establishes the efficacy of an antibacterial compound of the present invention in the topical treatment of methicillin-resistant Staphylococcus aureus infections. Partial thickness wounds were made on properly anesthetized young, specific pathogen free female pigs (SPF; Ken-O-Kaw Frams, Windsor, Ill.) weighing 25-30 kg. The wounds were inoculated with methicillin-resistant Staphylococcus aureus (~10^6 CFU/mL). Within 10 minutes of inoculation 200 mg of test compound [2% w/w in polyethylene glycol (PEG)] was applied to each wound. Wounds were cultured on days 1, 2, and 3. Each site was cultured only once. The culture sample was treated with a neutralizer for the antimicrobial active ingredient. The samples were processed as is known in the art to determine the number of colony forming units per mL.

Brc1ccc2[nH]cc([C@H]3Nc4ccc(C#CCN5CCCCC5)cc4[C@H]4OCC[C@@H]34)c2c1 (relative stereo) [drawing 54]
concentration at 4 h ([1]; rat, brain, iv, rat 1, 4 h post dose, read-out: Compound Content in Brain): 400 ng/g | concentration at 4 h ([1]; rat, brain, iv, rat 2, 4 h post dose, read-out: Compound Content in Brain): 400 ng/g | concentration at 4 h ([1]; rat, kidney, iv, rat 1, 4 h post dose, read-out: Compound Content in Kidney): 1300 ng/g | concentration at 4 h ([1]; rat, kidney, iv, rat 2, 4 h post dose, read-out: Compound Content in Kidney): 2200 ng/g | concentration at 4 h ([1]; rat, liver, iv, rat 1, 4 h post dose, read-out: Compound Content in Liver): 3200 ng/g | concentration at 4 h ([1]; rat, liver, iv, rat 2, 4 h post dose, read-out: Compound Content in Liver): 3000 ng/g | concentration at 4 h ([1]; rat, lung, iv, rat 1, 4 h post dose, read-out: Compound Content in Lung): 12100 ng/g | concentration at 4 h ([1]; rat, lung, iv, rat 2, 4 h post dose, read-out: Compound Content in Lung): 10900 ng/g | concentration at 4 h ([1]; rat, parietal peritoneum, iv, rat 1, 4 h post dose, read-out: Compound Content in Parietal Peritoneum): 1300 ng/g | concentration at 4 h ([1]; rat, parietal peritoneum, iv, rat 2, 4 h post dose, read-out: Compound Content in Parietal Peritoneum): 1600 ng/g | Cmax ([1]; rat, plasma, iv, rats, liposomal formulation (1.8 mg/mL), read-out: Maximum concentrations in plasma): ~450 ng/mL | concentration at 4 h ([1]; rat, thigh muscle, iv, rat 2, 4 h post dose, read-out: Compound Content in Thigh Muscle): 700 ng/g | tolerability of the dose ([1]; rats, liposomal formulation): well tolerated | decline of plasma concentrations ([1]; rats, liposomal formulation, two-compartment open model): declined biexponentially

Clc1ccc2c(c1)[C@H]1OCC[C@H]1[C@H](c1c[nH]c3ccc(Br)cc13)N2 (relative stereo)
survival at 168 h (in vivo; 40 mg/kg): 100% | survival at 168 h (in vivo; 120 mg/kg): 100%

Clc1ccc2c(c1)[C@H]1OCC[C@H]1[C@@H](c1c[nH]c3ccc(Br)cc13)N2 (relative stereo)
survival at 168 h (in vivo; 40 mg/kg): 100% | survival at 168 h (in vivo; 120 mg/kg): 100%

Brc1ccc2[nH]cc([C@H]3Nc4ccc(C#CCN5CCCCC5)cc4[C@H]4OCC[C@@H]34)c2c1 (relative stereo) [drawing 55]
Log CFU/mL (mean ± SE) ([2]; 24 h): 5.92 Log CFU/mL | Log CFU/mL (mean ± SE) ([2]; 48 h): 5.83 Log CFU/mL | Log CFU/mL (mean ± SE) ([2]; 72 h): 5.66 Log CFU/mL
